Source: US20090131483A1, “2-PYRIDINE DERIVATIVES AS INHIBITORS OF NEUTROPHILE ELASTASE” (priority 2005, published 2009)

Target: T1, Human Neutrophil Elastase (HNE) (Homo sapiens, UniProt P08246)
T1 construct: Human Neutrophil Elastase (HNE) purified from serum; purchased Calbiochem 324681; host or cells: purified from serum (so in the source)
T1 sequence (P08246 30-267): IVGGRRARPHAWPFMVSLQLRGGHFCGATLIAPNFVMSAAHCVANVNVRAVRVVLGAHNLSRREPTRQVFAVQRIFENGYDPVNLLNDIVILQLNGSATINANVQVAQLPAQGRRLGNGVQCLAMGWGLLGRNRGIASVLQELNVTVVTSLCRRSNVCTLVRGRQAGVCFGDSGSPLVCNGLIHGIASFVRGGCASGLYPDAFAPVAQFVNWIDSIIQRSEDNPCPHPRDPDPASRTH
Test: Human Neutrophil Elastase Quenched-FRET Assay
Format: biochemical
Settings: HNE purified from serum 1.7 nM, substrate MeOSuc-AAPV-AMC 100 μM, pH 7.5, 15 min pre-incubation, 30 min incubation at room temperature; read-out: Inhibition of Human Neutrophil Elastase IC50
Method: Human Neutrophil Elastase Quenched-FRET Assay
The assay uses Human Neutrophil Elastase (HNE) purified from serum (Calbiochem art. 324681; Ref. Baugh, R. J. et al., 1976, Biochemistry. 15, 836-841). H was stored in 50 mM sodium acetate (NaOAc), 200 mM sodium chloride (NaCl), pH 5.5 with added 30% glycerol at −20° C. The protease substrate used was Elastase Substrate V Fluorogenic, MeOSuc-AAPV-AMC (Calbiochem art. 324740; Ref. Castillo, M. J. et al., 1979, Anal. Biochem. 99, 53-64). The substrate was stored in dimethyl sulphoxide (DMSO) at −20° C. The assay additions were as follows: Test compounds and controls were added to black 96-well flat-bottom plates (Greiner 655076), 1 μL in 100% DMSO, followed by 30 μL HNE in assay buffer with 0.01% Triton (trade mark) X-100 detergent. The assay buffer constitution was: 100 mM Tris(hydroxymethyl)aminomethane (TRIS) (pH 7.5) and 500 mM NaCl. The enzyme and the compounds were incubated at room temperature for 15 minutes. Then 30 μl substrate in assay buffer was added. The assay was incubated for 30 minutes at room temperature. The concentrations of HNE enzyme and substrate during the incubation were 1.7 nM and 100 μM, respectively. The assay was then stopped by adding 60 μl stop solution (140 mM acetic acid, 200 mM sodium monochloroacetate, 60 mM sodium acetate, pH 4.3). Fluorescence was measured on a Wallac 1420 Victor 2 instrument at settings: Excitation 380 nm, Emission 460 nm. IC50 values were determined using Xlfit curve fitting using model 205.

Compound | IC50
Cc1c(CS(C)(=O)=O)cc(C(=O)NCc2ccc(S(=O)(=O)C3CC3)cc2)c(=O)n1-c1cccc(C(F)(F)F)c1 [Example 23, N-[4-(Cyclopropylsulfonyl)benzyl]-6-methyl-5-[(methylsulfonyl)methyl]-2-oxo-1-[3-(trifluoromethyl)phenyl]-1,2-dihydropyridine-3-carboxamide] | 61 nM
Cc1c(C2CC2)cc(C(=O)NCc2cc(CO)no2)c(=O)n1-c1cccc(C(F)(F)F)c1 [Example 7, 5-Cyclopropyl-N-{[3-(hydroxymethyl)isoxazol-5-yl]methyl}-6-methyl-2-oxo-1-[3-(trifluoromethyl)phenyl]-1,2-dihydropyridine-3-carboxamide] | 48 nM

The remaining compounds from weak to strong by IC50, led by results:

IC50 | Compound
45 nM | CCc1cc(C(=O)NCc2cc(CO)no2)c(=O)n(-c2cccc(C(F)(F)F)c2)c1C [Example 6, 5-Ethyl-N-{[3-(hydroxymethyl)isoxazol-5-yl]methyl}-6-methyl-2-oxo-1-[3-(trifluoromethyl)phenyl]-1,2-dihydropyridine-3-carboxamide]
31 nM | Cc1c(-c2ccnn2C)cc(C(=O)NCc2cc(CO)no2)c(=O)n1-c1cccc(C(F)(F)F)c1 [Example 4, N-{[3-(Hydroxymethyl)isoxazol-5-yl]methyl}-6-methyl-5-(1-methyl-1H-pyrazol-5-yl)-2-oxo-1-[3-(trifluoromethyl)phenyl]1,2-dihydropyridine-3-carboxamide]
23 nM | Cc1c(C#CCO)cc(C(=O)NCc2ccc(S(C)(=O)=O)cc2)c(=O)n1-c1cccc(C(F)(F)F)c1 [Example 20, 5-(3-Hydroxyprop-1-yn-1-yl)-6-methyl-N-[4-(methylsulfonyl)benzyl]-2-oxo-1-[3-(trifluoromethyl)phenyl]-1,2-dihydropyridine-3-carboxamide]
